Data: patent US20170355708A1, “POTASSIUM CHANNEL MODULATORS” (Cadent Therapeutics, Inc., priority 2016, published 2017)

biological target: T1, hSK2 channels (Homo sapiens, UniProt P0DP23+Q9H2S1); experiment: Whole-cell patch-clamp recording of SK2 channel current (SC100); type: cell-based; conditions: Stimulating Concentration required for increasing the baseline current by 100%; HEK293 cells expressing hSK2; Table 3
T1 construct: expressed in transfected cells; host or cells: HEK293
Protocol: The biological activity of certain compounds were determined as follows. The ionic current through small-conductance Ca^2+-activated K^+ channels (SK channels, subtype 2) is recorded using the whole-cell configuration of the patch-clamp technique in a classic patch-clamp set-up using HEK293 tissue culture cells expressing hSK2 channels as described in Kasumu et. al., Chemistry & Biology 19, 1340-1353, Oct. 26, 2012.
The SC100 value determined is defined as the Stimulating Concentration required for increasing the baseline current by 100%.

| SC100 uM | SMILES |
| --- | --- |
| + (+ means >1 uM) | CC(=O)NCc1cc(Nc2ccc(F)cc2)nc(-n2ccc(C(F)F)n2)c1 [Compound 160, N-((2-(3-(difluoromethyl)-1H-pyrazol-1-yl)-6-((4-fluorophenyl)amino)pyridin-4-yl)methyl)acetamide] |
| ++ (++ means 200 nM-1000 nM) | Cc1cc(C)n(Cc2cc(Nc3ccc(F)cc3)nc(-n3ccc(CF)n3)c2)n1 [Compound 170, 4-((3,5-dimethyl-1H-pyrazol-1-yl)methyl)-6-(3-(fluoromethyl)-1H-pyrazol-1-yl)-N-(4-fluorophenyl)pyridin-2-amine] |
| ++ (++ means 200 nM-1000 nM) | Cc1cc(Nc2ccc(F)cc2)nc(-n2ccc(CF)n2)n1 [Compound 141, 2-(3-(fluoromethyl)-1H-pyrazol-1-yl)-N-(4-fluorophenyl)-6-methylpyrimidin-4-amine] |
| + (+ means >1 uM) | Cc1cc(Nc2ccc(F)cc2)nc(-n2ccc(C(C)O)n2)n1 (stereo not shown) [Compound 140, 1-(1-(4-((4-fluorophenyl)amino)-6-methylpyrimidin-2-yl)-1H-pyrazol-3-yl)ethan-1-ol] |
| ++ (++ means 200 nM-1000 nM) | Cc1cc(C)n(-c2nc(Nc3ccc(F)c(F)c3)cc(NC(C)C(N)=O)n2)n1 (stereo not shown) [Compound 126, 2-((6-((3,4-difluorophenyl)amino)-2-(3,5-dimethyl-1H-pyrazol-1-yl)pyrimidin-4-yl)amino)propanamide] |
| ++ (++ means 200 nM-1000 nM) | Cc1cc(C)n(-c2nc(Nc3ccc(Cl)cc3)cc(N[C@@H](C)C(N)=O)n2)n1 (single isomer, unassigned) [Compound 124, (−)-2-((6-((4-chlorophenyl)amino)-2-(3,5-dimethyl-1H-pyrazol-1-yl)pyrimidin-4-yl)amino)propanamide] |
| ++ (++ means 200 nM-1000 nM) | Cc1cc(C)n(-c2cc(NC(C)C(N)=O)nc(Nc3ccc(F)c(F)c3)n2)n1 (stereo not shown) [Compound 113, 2-((2-((3,4-difluorophenyl)amino)-6-(3,5-dimethyl-1H-pyrazol-1-yl)pyrimidin-4-yl)amino)propanamide] |
| + (+ means >1 uM) | Cc1cc(C)n(Cc2cc(Nc3ccc(F)cc3)nc(-n3ccc(CO)n3)c2)n1 [Compound 169, (1-(4-((3,5-dimethyl-1H-pyrazol-1-yl)methyl)-6-((4-fluorophenyl)amino)pyridin-2-yl)-1H-pyrazol-3-yl)methanol] |
| ++ (++ means 200 nM-1000 nM) | Cc1cc(C)n(-c2cc(N3C[C@@H]4C[C@H]3CN4)nc(Nc3ccc(F)c(F)c3)n2)n1 (stereo in doubt) [Compound 109, 4-((1S,4S)-2,5-diazabicyclo[2.2.1]heptan-2-yl)-N-(3,4-difluorophenyl)-6-(3,5-dimethyl-1H-pyrazol-1-yl)pyrimidin-2-amine] |
| ++ (++ means 200 nM-1000 nM) | Cc1cc(C)n(-c2cc(N3CCNC(C(N)=O)C3)nc(Nc3ccc(F)cc3F)n2)n1 (stereo not shown) [Compound 110, 4-(2-((2,4-difluorophenyl)amino)-6-(3,5-dimethyl-1H-pyrazol-1-yl)pyrimidin-4-yl)piperazine-2-carboxamide] |
| ++ (++ means 200 nM-1000 nM) | Cc1cc(C)n(-c2nc(Nc3ccc(F)cc3F)cc(N3CCN[C@@H](C(N)=O)C3)n2)n1 (single isomer, unassigned) [Compound 125, (−)-4-(6-((2,4-difluorophenyl)amino)-2-(3,5-dimethyl-1H-pyrazol-1-yl)pyrimidin-4-yl)piperazine-2-carboxamide] |
| +++ (+++ means <200 nM) | CC(=O)N1CCN(c2cc(-n3nc(C)cc3C)nc(Nc3ccc(F)cc3)n2)CC1 [Compound 103, 1-(4-(6-(3,5-dimethyl-1H-pyrazol-1-yl)-2-((4-fluorophenyl)amino)pyrimidin-4-yl)piperazin-1-yl)ethan-1-one] |
| ++ (++ means 200 nM-1000 nM) | FC(F)c1ccn(-c2nc(Nc3ccc(Cl)cc3)cc(N3CCOCC3)n2)n1 [Compound 154, N-(4-chlorophenyl)-2-(3-(difluoromethyl)-1H-pyrazol-1-yl)-6-morpholinopyrimidin-4-amine] |
| ++ (++ means 200 nM-1000 nM) | CC(O)c1ccn(-c2nc(Nc3ccc(Cl)cc3)cc(N3CC4(COC4)C3)n2)n1 (stereo not shown) [Compound 150, 1-(1-(4-((4-chlorophenyl)amino)-6-(2-oxa-6-azaspiro[3.3]heptan-6-yl)pyrimidin-2-yl)-1H-pyrazol-3-yl)ethan-1-ol] |
| +++ (+++ means <200 nM) | Cc1cc(Nc2ccc(Cl)c(C(F)(F)F)c2)nc(-n2ccc(C)n2)n1 [Compound 136, N-(4-chloro-3-(trifluoromethyl)phenyl)-6-methyl-2-(3-methyl-1H-pyrazol-1-yl)pyrimidin-4-amine] |
| +++ (+++ means <200 nM) | Fc1ccc(Nc2cc(N3CCOCC3)nc(-n3ccc(C(F)F)n3)n2)cc1 [Compound 158, 2-(3-(difluoromethyl)-1H-pyrazol-1-yl)-N-(4-fluorophenyl)-6-morpholinopyrimidin-4-amine] |
| + (+ means >1 uM) | Cc1cc(C)n(-c2cc(N3CC4(COC4)C3)nc(Nc3ccc(F)cc3F)n2)n1 [Compound 107, N-(2,4-difluorophenyl)-4-(3,5-dimethyl-1H-pyrazol-1-yl)-6-(2-oxa-6-azaspiro[3.3]heptan-6-yl)pyrimidin-2-amine] |
| ++ (++ means 200 nM-1000 nM) | Cc1cc(C)n(-c2cc(N3CC4(COC4)C3)nc(Nc3ccc(F)c(F)c3)n2)n1 [Compound 108, N-(3,4-difluorophenyl)-4-(3,5-dimethyl-1H-pyrazol-1-yl)-6-(2-oxa-6-azaspiro[3.3]heptan-6-yl)pyrimidin-2-amine] |
| +++ (+++ means <200 nM) | Cc1cc(C)n(-c2nc(Nc3ccc(F)c(F)c3)cc(N3CC4(COC4)C3)n2)n1 [Compound 111, N-(3,4-difluorophenyl)-2-(3,5-dimethyl-1H-pyrazol-1-yl)-6-(2-oxa-6-azaspiro[3.3]heptan-6-yl)pyrimidin-4-amine] |
| +++ (+++ means <200 nM) | CC(F)c1ccn(-c2nc(Nc3ccc(Cl)cc3)cc(N3CC4(COC4)C3)n2)n1 (stereo not shown) [Compound 152, N-(4-chlorophenyl)-2-(3-(1-fluoroethyl)-1H-pyrazol-1-yl)-6-(2-oxa-6-azaspiro[3.3]heptan-6-yl)pyrimidin-4-amine] |
| + (+ means >1 uM) | CCn1cnc2c(-n3nc(C)cc3C)nc(Nc3ccc(F)c(F)c3)cc21 [Compound 120, N-(3,4-difluorophenyl)-4-(3,5-dimethyl-1H-pyrazol-1-yl)-1-ethyl-1H-imidazo[4,5-c]pyridin-6-amine] |
| ++ (++ means 200 nM-1000 nM) | OCc1ccn(-c2nc(Nc3ccc(Cl)cc3)cc(N3CCOCC3)n2)n1 [Compound 149, (1-(4-((4-chlorophenyl)amino)-6-morpholinopyrimidin-2-yl)-1H-pyrazol-3-yl)methanol] |
| + (+ means >1 uM) | Cc1cc(C)n(-c2nc(Nc3ccc(Cl)cc3)nc3c2ncn3CCN)n1 [Compound 133, 9-(2-aminoethyl)-N-(4-chlorophenyl)-6-(3,5-dimethyl-1H-pyrazol-1-yl)-9H-purin-2-amine] |
| ++ (++ means 200 nM-1000 nM) | FCc1ccn(-c2nc(Nc3ccc(F)cc3)cc(N3CCOCC3)n2)n1 [Compound 157, 2-(3-(fluoromethyl)-1H-pyrazol-1-yl)-N-(4-fluorophenyl)-6-morpholinopyrimidin-4-amine] |
| ++ (++ means 200 nM-1000 nM) | CC(C)(O)c1ccn(-c2nc(Nc3ccc(Cl)cc3)cc(N3CC4(COC4)C3)n2)n1 [Compound 147, 2-(1-(4-((4-chlorophenyl)amino)-6-(2-oxa-6-azaspiro [3.3]heptan-6-yl)pyrimidin-2-yl)-1H-pyrazol-3-yl)propan-2-ol] |

same assay, conditions: Stimulating Concentration required for increasing the baseline current by 100%; HEK293 cells expressing hSK2; Table 4

| SC100 (μM) | SMILES |
| --- | --- |
| + (+ means >1 uM) | COc1cc(Nc2ccc(F)cc2)nc(-c2cccc(C)n2)n1 [NSSy6908] |
| + (+ means >1 uM) | CN(C)C1CN(c2cc(Nc3ccc(F)cc3)nc(-n3ccc(CF)n3)c2)C1 [NSSy5713] |
| +++ (+++ means <200 nM) | Cc1ccn(-c2cc(CN3CCCC3=O)cc(Nc3ccc(Cl)cc3)n2)n1 [NSSy5701, 1-((2-((4-chlorophenyl)amino)-6-(3-methyl-1H-pyrazol-1-yl)pyridin-4-yl)methyl) pyrrolidin-2-one] |
| ++ (++ means 200 nM-1000 nM) | COc1cc(Nc2ccc(F)cc2F)nc(-c2nc(C)cs2)n1 [IN11059-023-P1] |
| + (+ means >1 uM) | Fc1ccc(Nc2ccnc(-n3ccc(C4CC4)n3)n2)cc1 [IN11166-018-P1, 2-(3-cyclopropyl-1H-pyrazol-1-yl)-N-(4-fluorophenyl) pyrimidin-4-amine] |
| ++ (++ means 200 nM-1000 nM) | Cc1ccn(-c2nc(Nc3ccccc3Cl)cc(C(C)O)n2)n1 (stereo not shown) [IN10881-055-P1] |
| +++ (+++ means <200 nM) | CC1(O)CN(c2cc(Nc3ccc(F)cc3)nc(-n3ccc(CF)n3)c2)C1 [NSSy5632] |
| + (+ means >1 uM) | Cc1cc(Nc2ccc(F)cc2)nc(-c2nc(C)ccc2C)n1 [IN11237-001-P1, 2-(3,6-dimethylpyridin-2-yl)-N-(4-fluorophenyl)-6-methylpyrimidin-4-amine] |
| + (+ means >1 uM) | Cc1cc(C)n(-c2cc(C(C)O)cc(Nc3ccc(F)cc3)n2)n1 (stereo not shown) [IN10964-084-P1, 1-(2-(3,5-dimethyl-1H-pyrazol-1-yl)-6-((4-fluorophenyl)amino)pyridin-4-yl)ethan-1-ol] |
| ++ (++ means 200 nM-1000 nM) | Cc1cccc(-c2nc(Nc3ccc(F)cc3)cc(N3CCOCC3)n2)n1 [NSSy6907, N-(4-fluorophenyl)-2-(6-methylpyridin-2-yl)-6-morpholinopyrimidin-4-amine] |
| ++ (++ means 200 nM-1000 nM) | Cc1ccn(-c2nc(Nc3ccc(F)cc3)cc(C(C)O)n2)n1 (stereo not shown) [IN10882-054-P1] |

| SMILES | SC100 (μM) |
| --- | --- |
| Cc1cc(C)n(-c2nc(Nc3ccc(F)cc3)cc(C(C)O)n2)n1 (stereo not shown) [IN10973-006-P1] | ++ (++ means 200 nM-1000 nM) |
